Laboratory results: doi:10.64898/2025.12.11.693838v1 (biorxiv, 2025)

Target: T1, SaTpx (WT-SaTpx) (Staphylococcus aureus, UniProt Q2FXL3)
T1 sequence (Q2FXL3 1-164): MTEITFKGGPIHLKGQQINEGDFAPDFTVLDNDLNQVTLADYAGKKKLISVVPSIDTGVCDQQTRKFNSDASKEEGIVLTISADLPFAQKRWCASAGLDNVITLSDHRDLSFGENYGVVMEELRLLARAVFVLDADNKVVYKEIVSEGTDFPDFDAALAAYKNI
Test: coupled SaTrx1/SaTR NADPH oxidation assay at […] nm, Michaelis-Menten fit
Format: biochemical
Conditions: apparent; NADPH 0.2 mM; 20 mM Tris, 50 mM NaCl, pH 8.0

CC(C)(OO)c1ccccc1 [cumene hydroperoxide]
Km: 8.5 µM
